Experimental data reported in US7943340B2, “Fungal dipeptidyl peptidase IV (DPPIV) enzyme for reagent use” (priority 2003, dated 2011).
Where two headings read alike, the source gives them in different places.

What was measured:
fuLAP1 = fuLAP1 (Aspergillus fumigatus, UniProt Q5VJG6); type: biochemical; details: for fuLAP1 hydrolytic activity, percentage of control without any cation / fuLAP1 hydrolytic activity, percentage of control without inhibitor: Leu-MCA substrate
Method: (§1) Inhibitors and metallic cations were pre-incubated with the enzymes for 15 min at 37° C. Then, Leu-AMC at a 5 mM final concentration was added. After further incubation for 60 min, enzyme activity was measured as described above. The inhibitors and their concentrations tested purified LAPs were: 500 μM amastatin (Bachem), 40 μM benzamidine (Sigma), 500 μM bestatin (Bachem), 5 mM/l mM EDTA (Sigma). 100 μM E-64 (L-trans-epoxysuccinyl-leu-4-guanidinobutylamide) (Bachem), 100 μM leupeptin (Sigma), 5 mM/1 mM ortho-phenanthroline (Sigma), 500 μM p-chloromercuribenzoic acid (Sigma), 100 μM pepstatin A (Sigma), 40 μM PMSF (Sigma), 20 μM TLCK (Roche Diagnostics), and 20 μM TPCK (Roche Diagnostics).

ruLAP2 = ruLAP2 (Trichophyton rubrum, UniProt Q5QHG6); type: biochemical; details: for ruLAP2 hydrolytic activity, percentage of control without any cation / ruLAP2 hydrolytic activity, percentage of control without inhibitor: Leu-MCA substrate; for effect of inhibitor on ruLAP2 activity: Leu-AMC 5 mM, inhibitor concentrations
Method: as §1

[1] = tested on: all the LAPs tested (ruLAP1, ruLAP2, fuLAP1, fuLAP2, pkLAP); type: biochemical; details: for effect of inhibitor on all the LAPs tested: Leu-AMC 5 mM, amastatin 500 μM, ortho-phenantroline 1 and 5 mM, others as
Method: as §1

ruLAP1 = ruLAP1 (Trichophyton rubrum, UniProt Q5QHG5); type: biochemical; details: for ruLAP1 hydrolytic activity, percentage of control without any cation / ruLAP1 hydrolytic activity, percentage of control without inhibitor: Leu-MCA substrate
Method: as §1

fuLAP2 = type: biochemical, Aspergillus fumigatus; details: for effect of divalent cation on fuLAP2 activity: Leu-AMC substrate; for fuLAP2 hydrolytic activity, percentage of control without any cation / fuLAP2 hydrolytic activity, percentage of control without inhibitor: Leu-MCA substrate
Method: as §1

[2] = target: T1, pkLAP (microsomal LAP from porcine kidney) (Sus scrofa, UniProt P15145); test: Effect of chemical reagents (inhibitors, metallic cations) on LAP activity with Leu-AMC; type: biochemical; details: for pkLAP hydrolytic activity, percentage of control without any cation / pkLAP hydrolytic activity, percentage of control without inhibitor: Leu-MCA substrate; for effect of divalent cation on pkLAP activity: Leu-AMC substrate
T1 construct: purchased Sigma; host or cells: porcine kidney
T1 sequence (P15145 1-963): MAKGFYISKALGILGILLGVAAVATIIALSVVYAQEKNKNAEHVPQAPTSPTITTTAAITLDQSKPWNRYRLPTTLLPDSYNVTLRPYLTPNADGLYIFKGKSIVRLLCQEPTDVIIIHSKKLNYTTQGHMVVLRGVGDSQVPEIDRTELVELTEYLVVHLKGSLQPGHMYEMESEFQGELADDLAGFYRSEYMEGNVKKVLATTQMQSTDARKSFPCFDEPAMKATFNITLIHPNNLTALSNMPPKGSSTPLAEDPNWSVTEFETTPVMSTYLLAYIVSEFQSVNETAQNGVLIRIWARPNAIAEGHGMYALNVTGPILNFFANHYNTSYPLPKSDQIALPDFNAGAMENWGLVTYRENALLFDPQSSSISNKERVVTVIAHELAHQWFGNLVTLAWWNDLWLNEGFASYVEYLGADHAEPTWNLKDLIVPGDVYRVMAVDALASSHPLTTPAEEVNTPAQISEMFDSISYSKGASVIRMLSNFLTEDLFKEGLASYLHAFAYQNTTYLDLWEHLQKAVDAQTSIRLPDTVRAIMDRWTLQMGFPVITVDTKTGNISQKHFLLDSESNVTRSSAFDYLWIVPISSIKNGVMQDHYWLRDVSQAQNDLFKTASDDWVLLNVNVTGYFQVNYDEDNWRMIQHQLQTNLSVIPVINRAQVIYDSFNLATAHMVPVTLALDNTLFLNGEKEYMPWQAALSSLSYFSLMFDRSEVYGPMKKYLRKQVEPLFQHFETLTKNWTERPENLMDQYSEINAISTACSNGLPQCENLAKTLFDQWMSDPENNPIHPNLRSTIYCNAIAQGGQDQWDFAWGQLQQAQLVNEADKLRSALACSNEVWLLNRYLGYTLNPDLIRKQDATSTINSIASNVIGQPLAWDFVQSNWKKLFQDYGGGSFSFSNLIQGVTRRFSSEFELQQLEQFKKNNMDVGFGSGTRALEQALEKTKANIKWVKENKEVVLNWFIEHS
Method: as §1

gliadin 33 mer = test: Digestion of gliadin 33 mer (RP-HPLC, ESI-MS); type: biochemical, wheat; details: 20 h; combinations with both enzymes at E/S (w:w) 1:50
[3] = Leu-AMC 5 mM, inhibitor concentrations, pepstatin 0.1 mM
[4] = Leu-AMC 5 mM, inhibitor concentrations

Chain of ruLAP1 (Q5QHG5 19-373): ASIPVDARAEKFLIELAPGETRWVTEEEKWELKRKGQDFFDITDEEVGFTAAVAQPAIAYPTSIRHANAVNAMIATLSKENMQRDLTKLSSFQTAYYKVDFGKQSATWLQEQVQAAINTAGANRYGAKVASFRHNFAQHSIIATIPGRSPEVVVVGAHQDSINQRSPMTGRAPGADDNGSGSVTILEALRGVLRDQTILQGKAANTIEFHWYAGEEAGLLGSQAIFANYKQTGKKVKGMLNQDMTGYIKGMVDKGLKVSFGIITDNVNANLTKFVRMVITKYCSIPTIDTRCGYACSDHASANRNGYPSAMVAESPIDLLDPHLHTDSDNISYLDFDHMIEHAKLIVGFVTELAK
Chain of ruLAP2 (Q5QHG6 22-495): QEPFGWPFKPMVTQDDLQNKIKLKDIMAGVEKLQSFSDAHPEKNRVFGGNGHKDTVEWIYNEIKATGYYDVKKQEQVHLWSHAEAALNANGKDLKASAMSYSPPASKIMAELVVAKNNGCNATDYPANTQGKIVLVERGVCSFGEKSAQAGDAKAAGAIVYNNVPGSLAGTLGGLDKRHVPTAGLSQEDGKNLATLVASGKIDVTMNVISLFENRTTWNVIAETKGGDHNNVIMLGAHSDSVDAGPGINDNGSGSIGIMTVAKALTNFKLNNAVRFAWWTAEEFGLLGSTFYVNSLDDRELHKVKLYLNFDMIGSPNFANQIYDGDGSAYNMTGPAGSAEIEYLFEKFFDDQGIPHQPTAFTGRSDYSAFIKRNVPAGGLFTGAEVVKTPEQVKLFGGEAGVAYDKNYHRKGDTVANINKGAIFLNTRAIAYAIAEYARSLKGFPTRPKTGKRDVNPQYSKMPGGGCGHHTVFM
Chain of fuLAP1 (Q5VJG6 15-388, looked up, natural form): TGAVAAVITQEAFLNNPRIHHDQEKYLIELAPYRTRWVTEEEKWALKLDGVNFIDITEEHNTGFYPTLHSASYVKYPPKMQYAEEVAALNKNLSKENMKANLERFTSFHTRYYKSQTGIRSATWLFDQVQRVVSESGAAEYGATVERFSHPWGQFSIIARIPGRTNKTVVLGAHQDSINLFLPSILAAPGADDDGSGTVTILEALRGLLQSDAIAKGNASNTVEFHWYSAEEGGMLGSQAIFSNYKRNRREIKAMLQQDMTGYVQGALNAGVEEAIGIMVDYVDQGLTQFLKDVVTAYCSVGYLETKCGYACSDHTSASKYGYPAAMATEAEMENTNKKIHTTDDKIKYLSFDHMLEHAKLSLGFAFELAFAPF

Compound | fuLAP1 hydrolytic activity, percentage of control without any cation (fuLAP1; cation salt 0.5 mM) [%] | fuLAP1 hydrolytic activity, percentage of control without any cation (fuLAP1; cation salt 1 mM) [%] | ruLAP2 hydrolytic activity, percentage of control without any cation (ruLAP2; cation salt 0.5 mM) [%] | ruLAP2 hydrolytic activity, percentage of control without any cation (ruLAP2; cation salt 1 mM) [%] | ruLAP1 hydrolytic activity, percentage of control without any cation (ruLAP1; cation salt 0.5 mM) [%] | ruLAP1 hydrolytic activity, percentage of control without any cation (ruLAP1; cation salt 1 mM) [%] | fuLAP2 hydrolytic activity, percentage of control without any cation (fuLAP2; cation salt 0.5 mM) [%] | fuLAP2 hydrolytic activity, percentage of control without any cation (fuLAP2; cation salt 1 mM) [%] | pkLAP hydrolytic activity, percentage of control without any cation ([2]; cation salt 0.5 mM) [%] | pkLAP hydrolytic activity, percentage of control without any cation ([2]; cation salt 1 mM) [%] | effect of inhibitor on all the LAPs tested [1] | further results
[Cl-].[Cl-].[Co+2] [Co^++, CoCl2] | 104.3 | 96.5 | 591.2 | 789.7 | 210.2 | 202.1 | 378.0 | 662.7 | 876.1 | 899.8 | – | effect of divalent cation on ruLAP2 activity (ruLAP2; Leu-AMC substrate): highly activated; increase of the activity of the LAPs ([1]; concentration up to 1 mM, with the exception of fuLAP1): 200% to 900%; effect of divalent cation on fuLAP2 activity (fuLAP2): highly activated
CC(=O)N[C@@H](CC(C)C)C(=O)N[C@@H](CC(C)C)C(=O)N[C@H](C=O)CCCNC(=N)N [Leupeptin, leupeptin] | – | – | – | – | – | – | – | – | – | – | no clear inhibitory effects | fuLAP2 hydrolytic activity, percentage of control without inhibitor (fuLAP2; inhibitor 100 μM): 61%
[Cl][Mn][Cl] [Mn^++, MnCl2] | 25.9 | 28.4 | 77.5 | 86.8 | 120.7 | 105.2 | 84.3 | 140.2 | 157.6 | 165.8 | – | effect of divalent cation on fuLAP1 activity (fuLAP1; Leu-AMC substrate): inhibited; effect of divalent cation on fuLAP2 activity (fuLAP2): activated
[Cl][Ni][Cl] [Ni, NiCl2] | 51.7 | 37.2 | 130.5 | 147.9 | 74.8 | 58.1 | 98.4 | 149.3 | 1187.7 | 1158.7 | – | effect of divalent cation on pkLAP activity [2]: highly activated
Cc1ccc(S(=O)(=O)N[C@@H](CCCCN)C(=O)CCl)cc1 [TLCK] | – | – | – | – | – | – | – | – | – | – | no clear inhibitory effects | fuLAP1 hydrolytic activity, percentage of control without inhibitor (fuLAP1; inhibitor 20 μM): 80%; ruLAP2 hydrolytic activity, percentage of control without inhibitor (ruLAP2; inhibitor 20 μM): 96%; ruLAP1 hydrolytic activity, percentage of control without inhibitor (ruLAP1; inhibitor 20 μM): 68%; fuLAP2 hydrolytic activity, percentage of control without inhibitor (fuLAP2; inhibitor 20 μM): 120%; pkLAP hydrolytic activity, percentage of control without inhibitor ([2]; inhibitor 20 μM): 113%
Cc1ccc(S(=O)(=O)N[C@@H](Cc2ccccc2)C(=O)CCl)cc1 [TPCK] | – | – | – | – | – | – | – | – | – | – | no clear inhibitory effects | fuLAP1 hydrolytic activity, percentage of control without inhibitor (fuLAP1; inhibitor 20 μM): 95%; ruLAP2 hydrolytic activity, percentage of control without inhibitor (ruLAP2; inhibitor 20 μM): 79%; ruLAP1 hydrolytic activity, percentage of control without inhibitor (ruLAP1; inhibitor 20 μM): 68%; fuLAP2 hydrolytic activity, percentage of control without inhibitor (fuLAP2; inhibitor 20 μM): 87%; pkLAP hydrolytic activity, percentage of control without inhibitor ([2]; inhibitor 20 μM): 108%
[Cl-].[Cl-].[Zn+2] [Zn, ZnCl2] | 60.7 | 53.2 | 77.9 | 88.9 | 43.0 | 68.9 | 51.4 | 119.5 | 437.6 | 297.9 | – | effect of divalent cation on pkLAP activity [2]: highly activated
CC(C)C[C@@H](N)[C@H](O)C(=O)N[C@H](C(=O)N[C@H](C(=O)N[C@@H](CC(=O)O)C(=O)O)C(C)C)C(C)C [amastatin] | – | – | – | – | – | – | – | – | – | – | strongly or totally inhibited | fuLAP2 hydrolytic activity, percentage of control without inhibitor (fuLAP2; inhibitor 500 μM): 0%
N=C(N)c1ccccc1 [benzamidine] | – | – | – | – | – | – | – | – | – | – | no clear inhibitory effects | fuLAP2 hydrolytic activity, percentage of control without inhibitor (fuLAP2; inhibitor 40 μM): 91%
CC(C)C[C@H](NC(=O)[C@@H](O)[C@H](N)Cc1ccccc1)C(=O)O [bestatin] | – | – | – | – | – | – | – | – | – | – | – | effect of inhibitor on fuLAP1 activity (fuLAP1; [3]): inhibited; effect of inhibitor on ruLAP2 activity (ruLAP2): only partial inhibitory effect; effect of inhibitor on ruLAP1 activity (ruLAP1; [3]): inhibited; effect of inhibitor on fuLAP2 activity (fuLAP2; [4]): only partial inhibitory effect; fuLAP2 hydrolytic activity, percentage of control without inhibitor (fuLAP2; inhibitor 500 μM): 88%; effect of inhibitor on pkLAP activity [2, 4]: inhibited
c1cnc2c(c1)ccc1cccnc12 [orthophenanthroline] | – | – | – | – | – | – | – | – | – | – | – | fuLAP1 hydrolytic activity, percentage of control without inhibitor (fuLAP1; inhibitor 1 mM): 0%; fuLAP1 hydrolytic activity, percentage of control without inhibitor (fuLAP1; inhibitor 5 mM): 0%; ruLAP2 hydrolytic activity, percentage of control without inhibitor (ruLAP2; inhibitor 1 mM): 0%; ruLAP2 hydrolytic activity, percentage of control without inhibitor (ruLAP2; inhibitor 5 mM): 0%; ruLAP1 hydrolytic activity, percentage of control without inhibitor (ruLAP1; inhibitor 1 mM): 0%; ruLAP1 hydrolytic activity, percentage of control without inhibitor (ruLAP1; inhibitor 5 mM): 0%; fuLAP2 hydrolytic activity, percentage of control without inhibitor (fuLAP2; inhibitor 1 mM): 0%; fuLAP2 hydrolytic activity, percentage of control without inhibitor (fuLAP2; inhibitor 5 mM): 0%; pkLAP hydrolytic activity, percentage of control without inhibitor ([2]; inhibitor 1 mM): 0%; pkLAP hydrolytic activity, percentage of control without inhibitor ([2]; inhibitor 5 mM): 0%
O=C(O)c1cc[c]([Hg][Cl])cc1 [p-chloromercuribenzoate, p-chloromercuribenzoic acid] | – | – | – | – | – | – | – | – | – | – | – | fuLAP1 hydrolytic activity, percentage of control without inhibitor (fuLAP1; inhibitor 500 μM): 90%; effect of inhibitor on ruLAP2 activity (ruLAP2): blunted the activity; ruLAP2 hydrolytic activity, percentage of control without inhibitor (ruLAP2; inhibitor 500 μM): 21%; ruLAP1 hydrolytic activity, percentage of control without inhibitor (ruLAP1; inhibitor 500 μM): 32%; fuLAP2 hydrolytic activity, percentage of control without inhibitor (fuLAP2; inhibitor 500 μM): 96%; pkLAP hydrolytic activity, percentage of control without inhibitor ([2]; inhibitor 500 μM): 59%
Chymotrypsin [reference compound] | – | – | – | – | – | – | – | – | – | – | – | digestion of the peptide with other enzymes (gliadin 33 mer): not able to breakdown the peptide
